Test results taken from ChEMBL document CHEMBL3232928, “Fragment-to-hit-to-lead discovery of a novel pyridylurea scaffold of ATP competitive dual targeting type II topoisomerase inhibiting antibacterial agents” (J Med Chem, 2013).
pIC50: −log10 of the molar value. ≈ marks a conversion by molar mass, not a printed value.

Key:
Escherichia coli [1] = test: Antibacterial activity against tolC efflux pump deficient Escherichia coli W3110 assessed as growth inhibition after 18 to 24 hrs by CLSI broth microdilution method; type: functional
DNA gyrase subunit B = DNA gyrase subunit B (Staphylococcus aureus, UniProt P0A0K8); test: Inhibition of ATPase activity in Staphylococcus aureus GyrB tetramer in presence of Escherichia coli GyrA by ammonium molybdate/malachite green-based absorbance assay
Chain of DNA gyrase subunit B (P0A0K8 whole entry): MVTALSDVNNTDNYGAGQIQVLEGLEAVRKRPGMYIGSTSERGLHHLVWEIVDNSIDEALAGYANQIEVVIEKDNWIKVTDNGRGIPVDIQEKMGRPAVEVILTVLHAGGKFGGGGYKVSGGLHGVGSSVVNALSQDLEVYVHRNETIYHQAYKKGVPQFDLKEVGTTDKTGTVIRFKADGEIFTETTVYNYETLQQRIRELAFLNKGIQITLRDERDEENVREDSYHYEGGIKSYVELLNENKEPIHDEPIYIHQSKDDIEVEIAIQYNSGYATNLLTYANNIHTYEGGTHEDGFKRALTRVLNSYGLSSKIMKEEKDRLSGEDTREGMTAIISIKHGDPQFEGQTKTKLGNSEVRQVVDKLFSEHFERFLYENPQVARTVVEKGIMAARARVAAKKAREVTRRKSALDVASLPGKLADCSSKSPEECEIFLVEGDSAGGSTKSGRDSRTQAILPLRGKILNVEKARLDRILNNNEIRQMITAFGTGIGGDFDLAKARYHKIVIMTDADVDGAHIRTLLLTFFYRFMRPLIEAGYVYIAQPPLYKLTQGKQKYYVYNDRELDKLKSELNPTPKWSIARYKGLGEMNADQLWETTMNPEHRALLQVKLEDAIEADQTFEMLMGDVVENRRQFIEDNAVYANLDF

[2] = Antibacterial activity against Streptococcus pneumoniae D39 NCTC 7466 assessed as growth inhibition after 18 to 24 hrs by CLSI broth microdilution method; type: functional
Staphylococcus aureus [3] = test: Antibacterial activity against methicillin-resistant and […] Staphylococcus aureus assessed as growth inhibition after 18 to 24 hrs by CLSI broth microdilution method; type: functional
Escherichia coli [4] = test: Antibacterial activity against wild type Escherichia coli W3110 assessed as growth inhibition after 18 to 24 hrs by CLSI broth microdilution method; type: functional
[5] = Antibacterial activity against wild type Haemophilus influenzae Rd KW20 ATCC 51907 assessed as growth inhibition after 18 to 24 hrs by CLSI broth microdilution method; type: functional
[6] = Octanol-phosphate buffer partition coefficient, log D of the compound at pH 7.4 after 1 hr by shake flask method; type: physicochemical
[7] = Inhibition of ATPase activity in Escherichia coli GyrA/GyrB by ammonium molybdate/malachite green-based absorbance assay
[8] = Inhibition of ATPase activity in Escherichia coli ParC/ParE by ammonium molybdate/malachite green-based absorbance assay
Moraxella catarrhalis = test: Antibacterial activity against wild type Moraxella catarrhalis ATCC 43617 assessed as growth inhibition after 18 to 24 hrs by CLSI broth microdilution method; type: functional
[9] = Inhibition of ATPase activity in Escherichia coli ParE by ammonium molybdate/malachite green-based absorbance assay
Staphylococcus aureus [10] = test: Antibacterial activity against methicillin-sensitive wild type Staphylococcus aureus assessed as growth inhibition after 18 to 24 hrs by CLSI broth microdilution method; type: functional
[11] = Solubility of the compound; type: physicochemical
[12] = Unbound fraction in human at 10 uM after 16 hrs by LC-MS/MS analysis; type: ADME; conditions: plasma
[13] = Volume of distribution at steady state in rat plasma at 10 mg/kg, iv administered 15 mins of infusion measured for 0 to 24 hrs by LC-MS/MS analysis; type: ADME, organism-based; set-up: dose 10 mg/kg, route intravenous; conditions: read-out: Vdss
[14] = Clearance in rat plasma at 10 mg/kg, iv administered 15 mins of infusion measured for 0 to 24 hrs by LC-MS/MS analysis; type: ADME, organism-based; set-up: dose 10 mg/kg, route intravenous

## CCNC(=O)Nc1cc(-c2nc(C(F)(F)F)cs2)c(-c2nc3cccc(C(=O)O)c3s2)cn1
Escherichia coli [1]
  MIC: 0.8 µg/mL (≈ 1.62 µM)
DNA gyrase subunit B
  pIC50: > 8.00
[2]
  MIC: 0.05 µg/mL (≈ 0.101 µM)
Staphylococcus aureus [3]
  MIC: 6.1 µg/mL (≈ 12.4 µM)
Escherichia coli [4]
  MIC: > 64 µg/mL
[5]
  MIC: 12 µg/mL (≈ 24.3 µM)
[6]
  logD at 1 h: 0.73
[7]
  pIC50: > 8.00
[8]
  pIC50: 6.44
Moraxella catarrhalis
  MIC: 1.6 µg/mL (≈ 3.24 µM)
[9]
  pIC50: > 8.00
Staphylococcus aureus [10]
  MIC: 3.1 µg/mL (≈ 6.28 µM)

## CCNC(=O)Nc1ccc(-c2ncc(C(N)=O)s2)cn1
Escherichia coli [1]
  MIC: 16 µg/mL (≈ 54.9 µM)
DNA gyrase subunit B
  pIC50: 6.26
[2]
  MIC: 4 µg/mL (≈ 13.7 µM)
Staphylococcus aureus [3]
  MIC: > 64 µg/mL
Escherichia coli [4]
  MIC: > 64 µg/mL
[5]
  MIC: 32 µg/mL (≈ 110 µM)
[7]
  pIC50: 6.25
[8]
  pIC50: 4.57
Moraxella catarrhalis
  MIC: 8 µg/mL (≈ 27.5 µM)
[9]
  pIC50: 6.42
Staphylococcus aureus [10]
  MIC: 64 µg/mL (≈ 220 µM)

## CCNC(=O)Nc1cc(-c2nc(C(F)(F)F)cs2)c(-c2cncc(-c3c(C)noc3C)c2)cn1
Escherichia coli [1]
  MIC: > 9 µg/mL
[11]
  solubility: 6 µM (≈ 2.93 µg/mL)
DNA gyrase subunit B
  pIC50: 6.52
[2]
  MIC: 4.6 µg/mL (≈ 9.42 µM)
Escherichia coli [4]
  MIC: > 9 µg/mL
[5]
  MIC: > 9 µg/mL
[6]
  logD at 1 h: 3.5
[7]
  pIC50: 7.17
[12]
  fraction unbound at 16 h, 10 µM: 0.045
[8]
  pIC50: 5.32
[9]
  pIC50: 7.28
Staphylococcus aureus [10]
  MIC: > 9 µg/mL

## CCNC(=O)Nc1cc(-c2ccncc2)c(-c2cncc(C(=O)O)c2)cn1
Escherichia coli [1]
  MIC: > 9 µg/mL
DNA gyrase subunit B
  pIC50: 6.49
[2]
  MIC: > 9 µg/mL
Escherichia coli [4]
  MIC: > 9 µg/mL
[5]
  MIC: > 9 µg/mL
[6]
  logD at 1 h: -0.82
[7]
  pIC50: 6.62
[8]
  pIC50: 4.96
Moraxella catarrhalis
  MIC: > 9 µg/mL
[9]
  pIC50: 6.51
Staphylococcus aureus [10]
  MIC: > 9 µg/mL

## CCNC(=O)Nc1ccc(-c2nc(C(=O)O)cs2)cn1
DNA gyrase subunit B
  pIC50: 5.44
[2]
  MIC: > 64 µg/mL
Escherichia coli [4]
  MIC: > 64 µg/mL
[5]
  MIC: > 64 µg/mL
Moraxella catarrhalis
  MIC: > 64 µg/mL
Staphylococcus aureus [10]
  MIC: > 64 µg/mL

## CCNC(=O)Nc1cc(-c2nc(C(F)(F)F)cs2)c(-c2ncc(C(=O)O)s2)cn1
Escherichia coli [1]
  MIC: 22 µg/mL (≈ 49.6 µM)
DNA gyrase subunit B
  pIC50: > 8.00
[2]
  MIC: 2.8 µg/mL (≈ 6.31 µM)
Staphylococcus aureus [3]
  MIC: 44 µg/mL (≈ 99.2 µM)
Escherichia coli [4]
  MIC: > 64 µg/mL
[5]
  MIC: > 64 µg/mL
[7]
  pIC50: > 8.00
[8]
  pIC50: 6.03
Moraxella catarrhalis
  MIC: 44 µg/mL (≈ 99.2 µM)
[9]
  pIC50: > 8.00
Staphylococcus aureus [10]
  MIC: > 64 µg/mL

## CCNC(=O)Nc1ccc(Oc2cccc(C(=O)O)c2)cn1
Escherichia coli [1]
  MIC: > 64 µg/mL
DNA gyrase subunit B
  pIC50: 5.00
[2]
  MIC: > 64 µg/mL
Escherichia coli [4]
  MIC: > 64 µg/mL
[5]
  MIC: > 64 µg/mL
[7]
  pIC50: 5.36
[8]
  pIC50: < 3.70
Moraxella catarrhalis
  MIC: > 64 µg/mL
[9]
  pIC50: 4.80
Staphylococcus aureus [10]
  MIC: > 64 µg/mL

## CCNC(=O)Nc1ccc(-c2nc3cccc(C(N)=O)c3s2)cn1
Escherichia coli [1]
  MIC: > 64 µg/mL
[11]
  solubility: < 1 µM
DNA gyrase subunit B
  pIC50: 7.41
[2]
  MIC: 1 µg/mL (≈ 2.93 µM)
Escherichia coli [4]
  MIC: > 64 µg/mL
[5]
  MIC: > 64 µg/mL
[7]
  pIC50: 7.03
[8]
  pIC50: 4.92
Moraxella catarrhalis
  MIC: > 64 µg/mL
[9]
  pIC50: 7.15
Staphylococcus aureus [10]
  MIC: > 64 µg/mL

## CCNC(=O)Nc1ccccc1
DNA gyrase subunit B
  pIC50: < 3.00

## CCNC(=O)Nc1nc2ccccc2[nH]1
DNA gyrase subunit B
  pIC50: 4.19

## CCNC(=O)Nc1ccc(-c2cccc(C(=O)O)c2)cn1
Escherichia coli [1]
  MIC: > 64 µg/mL
DNA gyrase subunit B
  pIC50: 5.47
[2]
  MIC: 21 µg/mL (≈ 73.6 µM)
Escherichia coli [4]
  MIC: > 64 µg/mL
[5]
  MIC: 59 µg/mL (≈ 207 µM)
[7]
  pIC50: 5.33
[8]
  pIC50: 4.16
Moraxella catarrhalis
  MIC: 42 µg/mL (≈ 147 µM)
[9]
  pIC50: 5.70
Staphylococcus aureus [10]
  MIC: > 64 µg/mL

## CCCNC(=O)Nc1ccccn1
DNA gyrase subunit B
  pIC50: < 3.00

## CCNC(=O)Nc1cc(-c2nc(C(F)(F)F)cs2)c(-c2cncc(-c3nnc(C)o3)c2)cn1
Escherichia coli [1]
  MIC: 0.26 µg/mL (≈ 0.547 µM)
[13]
  Vd: 3.3 L/kg
[11]
  solubility: 1 µM (≈ 0.475 µg/mL)
DNA gyrase subunit B
  pIC50: > 8.00
[2]
  MIC: 0.05 µg/mL (≈ 0.105 µM)
Staphylococcus aureus [3]
  MIC: 0.26 µg/mL (≈ 0.547 µM)
[14]
  clearance: 123 mL/min/kg
Escherichia coli [4]
  MIC: > 64 µg/mL
[5]
  MIC: 33 µg/mL (≈ 69.4 µM)
[6]
  logD at 1 h: 2.4
[7]
  pIC50: > 8.00
[12]
  fraction unbound at 16 h, 10 µM: 0.11
[8]
  pIC50: 6.29
Moraxella catarrhalis
  MIC: 0.37 µg/mL (≈ 0.778 µM)
[9]
  pIC50: 7.82
Staphylococcus aureus [10]
  MIC: 0.19 µg/mL (≈ 0.4 µM)

## CCNC(=O)Nc1cc(-c2cccnc2)c(-c2cncc(C(=O)O)c2)cn1
Escherichia coli [1]
  MIC: > 64 µg/mL
DNA gyrase subunit B
  pIC50: 6.57
[2]
  MIC: > 64 µg/mL
Escherichia coli [4]
  MIC: > 64 µg/mL
[5]
  MIC: > 64 µg/mL
[6]
  logD at 1 h: -1.5
[7]
  pIC50: 6.52
[8]
  pIC50: 5.00
Moraxella catarrhalis
  MIC: > 64 µg/mL
[9]
  pIC50: 6.51
Staphylococcus aureus [10]
  MIC: > 64 µg/mL

## CCNC(=O)Nc1cc(-c2nc(C(C)(C)C)cs2)c(-c2cncc(C(=O)O)c2)cn1
Escherichia coli [1]
  MIC: 11 µg/mL (≈ 25.9 µM)
DNA gyrase subunit B
  pIC50: 7.52
[2]
  MIC: 0.66 µg/mL (≈ 1.55 µM)
Escherichia coli [4]
  MIC: > 64 µg/mL
[5]
  MIC: 43 µg/mL (≈ 101 µM)
[6]
  logD at 1 h: 0.12
[7]
  pIC50: 7.92
[8]
  pIC50: 5.64
Moraxella catarrhalis
  MIC: 43 µg/mL (≈ 101 µM)
[9]
  pIC50: 7.14
Staphylococcus aureus [10]
  MIC: > 64 µg/mL

## O=C(NCC(F)(F)F)Nc1ccccn1
DNA gyrase subunit B
  pIC50: < 3.00

## CCNC(=O)Nc1cc(-c2nc(C(F)(F)F)cs2)c(-c2cncc(/C(N)=N/O)c2)cn1
Escherichia coli [1]
  MIC: 0.18 µg/mL (≈ 0.399 µM)
[11]
  solubility: 4 µM (≈ 1.81 µg/mL)
DNA gyrase subunit B
  pIC50: 7.14
[2]
  MIC: < 0.01 µg/mL
Staphylococcus aureus [3]
  MIC: 0.72 µg/mL (≈ 1.59 µM)
[14]
  clearance: 22 mL/min/kg
Escherichia coli [4]
  MIC: > 64 µg/mL
[5]
  MIC: 1.4 µg/mL (≈ 3.1 µM)
[6]
  logD at 1 h: 2.2
[7]
  pIC50: 7.49
[12]
  fraction unbound at 16 h, 10 µM: 0.35
[8]
  pIC50: 5.70
Moraxella catarrhalis
  MIC: 0.18 µg/mL (≈ 0.399 µM)
[9]
  pIC50: 7.68
Staphylococcus aureus [10]
  MIC: 0.36 µg/mL (≈ 0.797 µM)

## CNC(=O)Nc1ccccn1
DNA gyrase subunit B
  pIC50: 4.00
